According to patent US10258041B2, “Substituted pyrazolylpyrazole derivative and use of same as herbicide” (KYOYU AGRI CO., LTD., priority 2015, dated 2019):

Tests used:
Format in all cases: in vivo
Echinochloa crus-galli = experiment: Paddy herbicidal activity test; details: irrigated pot, treated at 3.5 leaf stage of Echinochloa crus-galli, 30 days
Method: (§1) Rice paddy soil was filled into a 1/10000 are pot followed by the addition of suitable amounts of water and chemical fertilizer, kneading, seeding with Echinochloa crus-galli, Monochoria vaginalis and Scirpus juncoides and maintaining in an irrigated state at a water depth of 3 cm. Wettable powders of Target Compound (I) shown in Table 1 prepared in compliance with the preparation examples were diluted with a suitable amount of water, rice plants in the 2.0 leaf stage were transplanted during 3.5 leaf stage of Echinochloa crus-galli, and treated by dropping in chemical in the prescribed amount per 10 are using a pipette. After treating for 30 days in a glass greenhouse at an average atmospheric temperature of […], the herbicidal efficacy thereof was investigated. Evaluation of herbicidal efficacy was carried out by comparing growth inhibition rate (%) with an untreated group, while evaluation of chemical damage was carried out by comparing growth inhibition rate (%) with the state of a complete eradication group, and were evaluated at 11 levels indicated below. • 0 (exponent): 0% to less than 10% (growth inhibition rate) • 1: 10% to less than 20% • 2: 20% to less than 30% • 3: 30% to less than 40% • 4: 40% to less than 50% • 5: 50% to less than 60% • 6: 60% to less than 70% • 7: 70% to less than 80% • 8: 80% to less than 90% • 9: 90% to less than 100% • 10: 100%

Monochoria vaginalis = experiment: Paddy herbicidal activity test; details: irrigated pot, treated at 3.5 leaf stage of Echinochloa crus-galli, 30 days
Method: as §1

Scirpus juncoides = experiment: Paddy herbicidal activity test; details: irrigated pot, treated at 3.5 leaf stage of Echinochloa crus-galli, 30 days
Method: as §1

Oryza sativa = experiment: Paddy herbicidal activity test, chemical damage to transplanted rice; details: rice transplanted in 2.0 leaf stage, 30 days
Method: as §1

Amaranthus retroflexus [1] = experiment: Farming soil treatment test; details: soil surface spray prior to weed growth, 30 days, 30° C.
Method: (§2) Evaluation of herbicidal efficacy was carried out by comparing growth inhibition rate (%) with an untreated group, while evaluation of chemical damage was carried out by comparing growth inhibition rate (%) with the state of a complete eradication group, and were evaluated at 11 levels indicated below. • 0 (exponent): 0% to less than 10% (growth inhibition rate) • 1: 10% to less than 20% • 2: 20% to less than 30% • 3: 30% to less than 40% • 4: 40% to less than 50% • 5: 50% to less than 60% • 6: 60% to less than 70% • 7: 70% to less than 80% • 8: 80% to less than 90% • 9: 90% to less than 100% • 10: 100% Field soil was filled into a 1/6000 are pot followed by seeding with Digitaria ciliaris, Chenopodium album and Amraranthus retroflexus and covering with soil. Wettable powders of compounds of formula (I) shown in Table 1 prepared in compliance with the preparation examples were diluted with water to the prescribed amount of chemical and uniformly sprayed onto each soil surface layer using 100 liters of sprayed water per 10 are prior to weed growth following seeding. After treating for 30 days in a glass greenhouse at an average atmospheric temperature of 30° C., the herbicidal efficacy thereof was investigated. Evaluation of herbicidal efficacy was carried out in the same manner as the above-mentioned Test Example 1,

Chenopodium album [2] = experiment: Farming soil treatment test; details: soil surface spray prior to weed growth, 30 days, 30° C.
Method: as §2

Digitaria ciliaris [3] = experiment: Farming soil treatment test; details: soil surface spray prior to weed growth, 30 days, 30° C.
Method: as §2

Amaranthus retroflexus [4] = experiment: Weed foliar treatment test (Test 3); details: foliar spray at 1.0 to 2.0 leaf stage of Digitaria ciliaris, 3 weeks, 25° C.
Method: (§3) Evaluation of herbicidal efficacy was carried out by comparing growth inhibition rate (%) with an untreated group, while evaluation of chemical damage was carried out by comparing growth inhibition rate (%) with the state of a complete eradication group, and were evaluated at 11 levels indicated below. • 0 (exponent): 0% to less than 10% (growth inhibition rate) • 1: 10% to less than 20% • 2: 20% to less than 30% • 3: 30% to less than 40% • 4: 40% to less than 50% • 5: 50% to less than 60% • 6: 60% to less than 70% • 7: 70% to less than 80% • 8: 80% to less than 90% • 9: 90% to less than 100% • 10: 100% Soil was filled into a 1/6000 are pot followed by seeding with Digitaria ciliaris, Chenopodium album and Amaranthus retroflexus, covering with soil, and cultivating in a glass greenhouse at an average atmospheric temperature of 25° C. Wettable powders of Target Compound (I) shown in Table 1 prepared in compliance with the preparation examples were diluted with water to the prescribed amount of chemical and uniformly sprayed onto the weeds using 150 liters of sprayed water per 10 are when Digitaria ciliaris had grown to the 1.0 to 2.0 leaf stage. After treating for 3 weeks in a glass greenhouse at an average atmospheric temperature of 25° C., the herbicidal efficacy thereof was investigated. Evaluation of herbicidal efficacy was carried out in the same manner as the above-mentioned Test Example 1.

Chenopodium album [5] = experiment: Weed foliar treatment test (Test 3); details: foliar spray at 1.0 to 2.0 leaf stage of Digitaria ciliaris, 3 weeks, 25° C.
Method: as §3

Digitaria ciliaris [6] = experiment: Weed foliar treatment test (Test 3); details: foliar spray at 1.0 to 2.0 leaf stage of Digitaria ciliaris, 3 weeks, 25° C.
Method: as §3

Digitaria ciliaris [7] = experiment: Weed foliar treatment test (Test 4, higher leaf stage); details: 10 g a.i./10a; foliar spray at 4.0 to 5.0 leaf stage of Digitaria ciliaris (plant height 10 cm to 15 cm); 20 days, 25° C.
Method: (§4) Evaluation of herbicidal efficacy was carried out by comparing growth inhibition rate (%) with an untreated group, while evaluation of chemical damage was carried out by comparing growth inhibition rate (%) with the state of a complete eradication group, and were evaluated at 11 levels indicated below. • 0 (exponent): 0% to less than 10% (growth inhibition rate) • 1: 10% to less than 20% • 2: 20% to less than 30% • 3: 30% to less than 40% • 4: 40% to less than 50% • 5: 50% to less than 60% • 6: 60% to less than 70% • 7: 70% to less than 80% • 8: 80% to less than 90% • 9: 90% to less than 100% • 10: 100% Field soil was filled into a 1/4500 are pot followed by seeding with Digitaria ciliaris and Galinsoga parviflora, covering with soil and cultivating in a glass greenhouse at an average atmospheric temperature of 25° C. Wettable powders of Target Compound (I) shown, in Table 1 prepared in compliance with the preparation examples were diluted with water to the prescribed amount of chemical and uniformly sprayed onto the weeds using 100 liters of sprayed water per 10 are when Digitaria ciliaris had grown to the 4.0 to 5.0 leaf stage (plant height: 10 cm to 15 cm). After treating for 20 days in a glass greenhouse at an average atmospheric temperature of 25° C., the herbicidal efficacy thereof was investigated. Evaluation of herbicidal efficacy was carried out in the same manner as the above-mentioned Test Example 1.

Galinsoga parviflora = experiment: as above; details: 10 g a.i./10a; foliar spray at 4.0 to 5.0 leaf stage of Digitaria ciliaris; 20 days, 25° C.
Method: as §4

Structure (SMILES) | herbicidal efficacy (growth inhibition rate level), Echinochloa crus-galli (Echinochloa crus-galli; 1 g a.i./10a) | herbicidal efficacy (growth inhibition rate level), Echinochloa crus-galli (Echinochloa crus-galli; 5 g a.i./10a) | herbicidal efficacy (growth inhibition rate level), Monochoria vaginalis (Monochoria vaginalis; 1 g a.i./10a) | herbicidal efficacy (growth inhibition rate level), Monochoria vaginalis (Monochoria vaginalis; 5 g a.i./10a) | herbicidal efficacy (growth inhibition rate level), Scirpus juncoides (Scirpus juncoides; 1 g a.i./10a) | herbicidal efficacy (growth inhibition rate level), Scirpus juncoides (Scirpus juncoides; 5 g a.i./10a) | chemical damage (growth inhibition rate level), Oryza sativa (Oryza sativa; 1 g a.i./10a) | chemical damage (growth inhibition rate level), Oryza sativa (Oryza sativa; 5 g a.i./10a) | herbicidal efficacy (growth inhibition rate level), Amaranthus retroflexus (Amaranthus retroflexus [1]; 5 g a.i./10a) | herbicidal efficacy (growth inhibition rate level), Amaranthus retroflexus (Amaranthus retroflexus [1]; 10 g a.i./10a) | herbicidal efficacy (growth inhibition rate level), Chenopodium album (Chenopodium album [2]; 5 g a.i./10a) | herbicidal efficacy (growth inhibition rate level), Chenopodium album (Chenopodium album [2]; 10 g a.i./10a) | herbicidal efficacy (growth inhibition rate level), Digitaria ciliaris (Digitaria ciliaris [3]; 5 g a.i./10a) | herbicidal efficacy (growth inhibition rate level), Digitaria ciliaris (Digitaria ciliaris [3]; 10 g a.i./10a) | herbicidal efficacy (growth inhibition rate level), Amaranthus retroflexus (Amaranthus retroflexus [4]; 5 g a.i./10a) | herbicidal efficacy (growth inhibition rate level), Amaranthus retroflexus (Amaranthus retroflexus [4]; 10 g a.i./10a) | herbicidal efficacy (growth inhibition rate level), Chenopodium album (Chenopodium album [5]; 5 g a.i./10a) | herbicidal efficacy (growth inhibition rate level), Chenopodium album (Chenopodium album [5]; 10 g a.i./10a) | herbicidal efficacy (growth inhibition rate level), Digitaria ciliaris (Digitaria ciliaris [6]; 5 g a.i./10a) | herbicidal efficacy (growth inhibition rate level), Digitaria ciliaris (Digitaria ciliaris [6]; 10 g a.i./10a) | also measured
CC(=O)Nc1c([N+](=O)[O-])cnn1-c1nn2c(c1Cl)CCCC2 [Control Agent 2.17] | 1 (1: 10% to less than 20%) | 1 (1: 10% to less than 20%) | 1 (1: 10% to less than 20%) | 2 (2: 20% to less than 30%) | 0 (0 (exponent): 0% to less than 10% (growth inhibition rate)) | 1 (1: 10% to less than 20%) | 0 (0 (exponent): 0% to less than 10% (growth inhibition rate)) | 1 (1: 10% to less than 20%) | 4 (4: 40% to less than 50%) | 5 (5: 50% to less than 60%) | 0 (0 (exponent): 0% to less than 10% (growth inhibition rate)) | 1 (1: 10% to less than 20%) | 0 (0 (exponent): 0% to less than 10% (growth inhibition rate)) | 1 (1: 10% to less than 20%) | 6 (6: 60% to less than 70%) | 6 (6: 60% to less than 70%) | 0 (0 (exponent): 0% to less than 10% (growth inhibition rate)) | 1 (1: 10% to less than 20%) | 2 (2: 20% to less than 30%) | 2 (2: 20% to less than 30%) | herbicidal efficacy (growth inhibition rate level), Digitaria ciliaris (Digitaria ciliaris [7]): 0 (0 (exponent): 0% to less than 10% (growth inhibition rate)); herbicidal efficacy (growth inhibition rate level), Galinsoga parviflora (Galinsoga parviflora): 5 (5: 50% to less than 60%)
N#Cc1cnn(-c2nn3c(c2Cl)CCCC3)c1NC(=O)CCCl [Control Agent 1.36] | 2 (2: 20% to less than 30%) | 4 (4: 40% to less than 50%) | 3 (3: 30% to less than 40%) | 4 (4: 40% to less than 50%) | 1 (1: 10% to less than 20%) | 3 (3: 30% to less than 40%) | 2 (2: 20% to less than 30%) | 3 (3: 30% to less than 40%) | 4 (4: 40% to less than 50%) | 5 (5: 50% to less than 60%) | 4 (4: 40% to less than 50%) | 4 (4: 40% to less than 50%) | 3 (3: 30% to less than 40%) | 4 (4: 40% to less than 50%) | 5 (5: 50% to less than 60%) | 6 (6: 60% to less than 70%) | 4 (4: 40% to less than 50%) | 4 (4: 40% to less than 50%) | 2 (2: 20% to less than 30%) | 3 (3: 30% to less than 40%) | herbicidal efficacy (growth inhibition rate level), Digitaria ciliaris (Digitaria ciliaris [7]): 1 (1: 10% to less than 20%); herbicidal efficacy (growth inhibition rate level), Galinsoga parviflora (Galinsoga parviflora): 5 (5: 50% to less than 60%)
